Source: US20110263454A1, “Methods of Identifying Functional Characteristics of Promoters, Transcription Modifying Proteins and Transcription Modulating Agents” (Salk Institute for Biological Studies, priority 2008, published 2011)

Experiments:
Bmal1 promoter = assay: NHR-promoter luciferase screen, Bmal1 promoter; format: cell-based, mouse; settings: for Luc. act., normalized to lacZ / Normalized Luc. act., normalized to control: Bmal1 promoter, HR component without or with ligand; for mBmal1 promoter reporter activity: transcription factor +/- ligand, control = 1.00
Protocol: (§1) The use, feasibility, and reproducibility of the functional NHR-promoter screen in a 48-well format have been tested validated. Briefly, there were co-expressed 50 ng of each NHR/NHR homodimer or NHR/RXR heterodimer with 100 ng promoter/luciferase construct and 50 ng of LacZ (as a control for transfection efficiency) in CV-1 cells using Fugene HD (Roche) as a transfection reagent (alternatively or additionally, a CMV-YFP construct can be used as a transfection control). Each of the nuclear hormone receptors that were used in these experiments was cloned into a pcDNA3.1 vector and comprised a C-terminally linked V5H6 tag. Twenty-four hours after transfection, appropriate ligands were added, where applicable, (see Table 5 for various ligands and concentrations and after 48 hrs, samples were assayed for luciferase and LacZ activity. To measure for luciferase activity 15 ul of sample was added to 30 ul of luciferase buffer (20 mM tricine, 1.07 mM MgCarbonate, 2.67 mM MgSulfate, 0.1 mM Naz-EDTA, 5 mM DTT, 5 mM ATP, 0.15 mg/ml CoA, 0.5 mM Luciferin), mixed briefly, and run in a Perkin Elmer Victor 5 luminometer. Thus, the functional NHR-promoter screen was used to observe the transcriptional activity of 29 promoters from various physiological pathways including inflammation, lipid and sugar metabolism, cholesterol transport, xenobiotic metabolism, and circadian rhythm.
(§2) The promoters that facilitate transcription of the indicated gene products that were tested using the protocols described herein are listed in the first row of the table. The nuclear hormone receptors and, where applicable, ligands that were assayed for their transcriptional effects on the promoters are listed in the first column of the table. The data represent the luciferase activity of each sample normalized to both the lacZ activity of that sample and to a control, e.g., no NHR or ligand, as customary in the art. As described previously, these normalizations allow the transcriptional activity of each reporter cell to be compared to other samples.
(§3) Tables 7-40 show the transcriptional effects of the hormone receptors, and, where applicable, ligands (orphan receptors are screened without ligand), on each individual promoter. […] The control data of each table are shown in their last rows.

hCAR promoter = assay: NHR-promoter luciferase screen, hCAR promoter; format: cell-based, human; settings: for luciferase activity normalized to lacZ activity and to a control, hCAR: hCAR promoter-luciferase, CV-1 cells, NHR +/- ligand, control = 1.00; for Luc. act., normalized to lacZ / Normalized Luc. act., normalized to control: hCAR promoter, HR/ligand component
Protocol: as §1, §2, §3

mCAR promoter = assay: NHR-promoter luciferase screen, mCAR promoter; format: cell-based, mouse; settings: for luciferase activity normalized to lacZ activity and to a control, mCAR: mCAR promoter-luciferase, CV-1 cells, NHR +/- ligand, control = 1.00; for Luc. act., normalized to lacZ / Normalized Luc. act., normalized to control: mCAR promoter, HR/ligand component
Protocol: as §1, §2, §3

mUCP2 promoter = assay: NHR-promoter luciferase screen, mUCP2 promoter; format: cell-based, mouse; settings: for Luc. act., normalized to lacZ / Normalized Luc. act., normalized to control: mUCP2 promoter reporter, co-transfected HR, with or without its ligand; for Normalized Luc. act., normalized to control: relative to control; for luciferase activity normalized to lacZ activity and to a control, mUCP2: mUCP2 promoter-luciferase, CV-1 cells, NHR +/- ligand, control = 1.00
Protocol: as §1, §2, §3

mNPY promoter = assay: NHR-promoter luciferase screen, mNPY promoter; format: cell-based, mouse; settings: for Results of assays of transcription factor (+/- ligand) with mNPY: Table 6d, luciferase activity relative to control (control = 1.00); for Luc. act., normalized to lacZ / Normalized Luc. act., normalized to control: mNPY promoter, HR component with or without ligand; for Normalized Luc. act., normalized to control: relative to control
Protocol: as §1, §2, §3

mAdiponectin promoter = assay: NHR-promoter luciferase screen, mAdiponectin promoter; format: cell-based, mouse; settings: for Luc. act., normalized to lacZ / Normalized Luc. act., normalized to control: Adiponectin, HR component without or with its ligand; for mAdiponectin promoter reporter activity: transcription factor +/- ligand, control = 1.00
Protocol: as §1, §2, §3

| Substance | Luc. act., normalized to lacZ (Bmal1 promoter) | Normalized Luc. act., normalized to control (Bmal1 promoter) | mBmal1 promoter reporter activity (Bmal1 promoter) | luciferase activity normalized to lacZ activity and to a control, hCAR (hCAR promoter) | Luc. act., normalized to lacZ (hCAR promoter) | Normalized Luc. act., normalized to control (hCAR promoter) | luciferase activity normalized to lacZ activity and to a control, mCAR (mCAR promoter) | Luc. act., normalized to lacZ (mCAR promoter) | Normalized Luc. act., normalized to control (mCAR promoter) | Luc. act., normalized to lacZ (mUCP2 promoter) | Normalized Luc. act., normalized to control (mUCP2 promoter) | luciferase activity normalized to lacZ activity and to a control, mUCP2 (mUCP2 promoter) | Results of assays of transcription factor (+/- ligand) with mNPY (mNPY promoter) | Luc. act., normalized to lacZ (mNPY promoter) | Normalized Luc. act., normalized to control (mNPY promoter) | Luc. act., normalized to lacZ (mAdiponectin promoter) | Normalized Luc. act., normalized to control (mAdiponectin promoter) | mAdiponectin promoter reporter activity (mAdiponectin promoter) |
| --- | --- | --- | --- | --- | --- | --- | --- | --- | --- | --- | --- | --- | --- | --- | --- | --- | --- | --- |
| PNR: Photoreceptor-specific Nuclear Receptor (NR2E3), cDNA driver | 7.6 | 0.5 | 0.49 | 0.38 | 11.9 | 0.4 | 0.55 | 21.0 | 0.6 | 104.4 | 1.0 | 0.95 | 2.00 | 168.3 | 2.0 | 70.7 | 1.1 | 1.13 |
| PPARa: Peroxisome proliferator activated receptor α (NR1C1), cDNA driver | 8.1 | 0.5 | 0.52 | 1.39 | 43.9 | 1.4 | 0.88 | 33.6 | 0.9 | 167.3 | 1.5 | 1.52 | 0.62 | 51.7 | 0.6 | 40.4 | 0.6 | 0.64 |
| PPARg: Peroxisome proliferator activated receptor γ (NR1C3), cDNA driver | 13.8 | 0.9 | 0.88 | 1.58 | 49.8 | 1.6 | 1.25 | 47.7 | 1.3 | 171.6 | 1.6 | 1.56 | 1.14 | 95.6 | 1.1 | 80.6 | 1.3 | 1.28 |
| RXRa: Retinoic X Receptor α (NR2B1), cDNA driver | 11.8 | 0.8 | 0.75 | 0.78 | 24.7 | 0.8 | 0.97 | 36.9 | 1.0 | 137.8 | 1.3 | 1.25 | 0.95 | 80.0 | 1.0 | 57.3 | 0.9 | 0.91 |
| SF-1: Steroidogenic Factor 1 (NR5A1, SF1), cDNA driver | 11.4 | 0.7 | 0.73 | 3.60 | 113.6 | 3.6 | 2.43 | 92.6 | 2.4 | 449.3 | 4.1 | 4.09 | 2.12 | 177.6 | 2.1 | 35.0 | 0.6 | 0.56 |
